Reference: US20250236608A1, “EGFR INHIBITORS” (Blueprint Medicines Corporation, priority 2022, published 2025)

Key:
[1] = molecular target: pEGFR (Tyr1068) in PC-9 cells (Ex19Del) (Homo sapiens (Human), UniProt P00533, DEL746-750); experiment: PC-9 pEGFR AlphaLISA assay; format: cell-based; details: 4 hours incubation, p-EGFR (Tyr1068) AlphaLISA, read-out: Ext pEGFR_PC-9 Ex19Del IC50
Experimental: PC-9/A431 pEGFR AlphaLISA Assays
Inhibitory effects of compounds were evaluated in cellular assays that measure level of intracellular phosphorylation of EGFR in PC-9 (ECACC, #90071810, Milipore/Sigma) and A431 cell lines (ATCC, CRL-1555) using AlphaLISA sureFire ultra p-EGFR (Tyr1068) assay kit (PerkinElmer, ALSU-PEGFR-A50K). PC-9 cells were seeded at 3.125×10^5 cells/ml in 40 μL phenol-free DMEM supplemented with 10% FBS per well of a 384 well plate (Corning, 3764), while A431 were seeded at 3.125×10^5 cells/ml in 40 μL in phenol-free DMEM with 0.5% FBS. Cells were allowed to adhere overnight at 37° C./5% CO2. On the next day, compounds were transferred at 4-fold, 10-point serial dilution from compound source plate to cell plates using liquid handler Echo550 and were incubated at 37° C./5% CO2 for 4 hours. A431 cells were stimulated prior harvesting for 10 min with EGF at final concentration of 30 ng/ml in the incubator. Medium was removed from the plates and cells were lysed with 10 μL of 1× AlphaLISA lysis buffer (supplemented with 1× protease/phosphatase inhibitor cocktail) followed by shaking at 600 rpm for 30 minutes at room temperature. Lysates were transferred to Optiplate (Apricot designs) and 5 μl of 1× acceptor bead mix (prepared just before use) was added to each well followed by incubation at room temperature for 1.5-2 h in dark. Then 5 μL of freshly-made donor bead mix is added to each well under subdued lighting or green filters, was mixed well on the shaker and the plate was sealed and left for an overnight incubation at room temperature in dark. On the next day, the plate was read the Envision using standard AlphaLisa settings. Percent of pEGFR inhibition was plotted against log concentration of compounds to generate IC50 values.

[2] = molecular target: EGFR L858R (Homo sapiens (Human), UniProt P00533, L858R); experiment: Biochemical EGFR inhibition assay, EGFR L858R; details: Caliper mobility shift; 1.0 mM ATP or ATP Km; read-out: Enz EGFR_L858R IC50
Experimental: (§1) Reactions proceeded until between 10% to 20% total peptides were phosphorylated at room temperature (25° C.) and were terminated with 35 mM 2,2′,2″,2″-(ethane-1,2-diyldinitrilo)tetraacetic acid (EDTA). Product was detected using the Caliper mobility shift detection method where the phosphorylated peptide (product) and substrate were electrophoretically separated and measured. Percent activity was plotted against log concentration of compound and points to generate an apparent IC50.

[3] = molecular target: EGFR (d746-750) (Homo sapiens (Human), UniProt P00533, DEL746-750); experiment: Biochemical EGFR inhibition assay, EGFR (d746-750); details: Caliper mobility shift; 1.0 mM ATP or ATP Km; read-out: Enz EGFR_Exon19-del746-750 IC50
Experimental: as §1

Row | IC50 [1] [nM] | IC50 [2] [nM] | IC50 [3] [nM] | Compound
1 | 9.5 | 9.3 | 5.6 | COc1cc2ncnc(-c3cn(C)nc3-c3ccccc3)c2cc1OC(=O)N1C[C@@H](C)OC[C@@H]1C (racemic) [Example 91, trans-rac-7-methoxy-4-(1-methyl-3-phenyl-1H-pyrazol-4-yl)quinazolin-6-yl (2R,5S)-2,5-dimethylmorpholine-4-carboxylate or cis-rac-7-methoxy-4-(1-methyl-3-phenyl-1H-pyrazol-4-yl)quinazolin-6-yl (2S,5S)-2,5-dimethylmorpholine-4-carboxylate]
2 | 1.5 | 1.5 | 0.9 | COc1cc2ncnc(-c3cn(C)nc3-c3ccccc3)c2cc1NC(=O)c1ccc(F)cc1 [Example 222, 4-fluoro-N-(7-methoxy-4-(1-methyl-3-phenyl-1H-pyrazol-4-yl)quinazolin-6-yl)benzamide]
3 | 6.1 | 4.3 | 2.1 | COc1cc2ncnc(-c3cn(C)nc3-c3ccccc3)c2cc1NC(=O)N1CCO[C@@H](C)[C@@H]1C [Example 177, (2S,3S)—N-(7-methoxy-4-(1-methyl-3-phenyl-1H-pyrazol-4-yl)quinazolin-6-yl)-2,3-dimethylmorpholine-4-carboxamide]
4 | 5.6 | 2.8 | 1.3 | COc1cc2ncnc(-c3cn(C)nc3-c3ccccc3)c2cc1O[C@@H]1CCOC1 [Example 12, (R)-7-methoxy-4-(1-methyl-3-phenyl-1H-pyrazol-4-yl)-6-((tetrahydrofuran-3-yl)oxy)quinazoline]
5 | 2.2 | 2.4 | 1.5 | CCn1cc(-c2ncnc3cc(OC)c(NC(=O)[C@@]45COC[C@@H]4C5)cc23)c(-c2ccc(F)cc2)n1 [Example 334, (1R,5R)—N-(4-(1-ethyl-3-(4-fluorophenyl)-1H-pyrazol-4-yl)-7-methoxyquinazolin-6-yl)-3-oxabicyclo[3.1.0]hexane-1-carboxamide]
6 | 2.3 | 2.6 | 1.3 | COc1cc2ncnc(-c3cn(C)nc3-c3ccc(F)cc3)c2nc1NC(=O)[C@]12C[C@H]1CN(C)C2 (single isomer, unassigned) [Example 411, (1R,5R)—N-(4-(3-(4-fluorophenyl)-1-methyl-1H-pyrazol-4-yl)-7-methoxypyrido[3,2-d]pyrimidin-6-yl)-3-methyl-3-azabicyclo[3.1.0]hexane-1-carboxamide or (1S,5S)—N-(4-(3-(4-fluorophenyl)-1-methyl-1H-pyrazol-4-yl)-7-methoxypyrido[3,2-d]pyrimidin-6-yl)-3-methyl-3-azabicyclo[3.1.0]hexane-1-carboxamide]
7 | 1.1 | 1.8 | 1.4 | COc1cc2ncnc(-c3cn(C)nc3-c3ccccc3)c2nc1O[C@H](C)c1cccnc1F [Example 48, (R)-6-(1-(2-fluoropyridin-3-yl)ethoxy)-7-methoxy-4-(1-methyl-3-phenyl-1H-pyrazol-4-yl)pyrido[3,2-d]pyrimidine]
8 | 13 | 3.8 | 1.1 | COc1cc2ncnc(-c3cn(C)nc3-c3ccccc3)c2nc1-c1cccc2c1OCC(=O)N2 [Example 154, 8-(7-methoxy-4-(1-methyl-3-phenyl-1H-pyrazol-4-yl)pyrido[3,2-d]pyrimidin-6-yl)-2H-benzo[b][1,4]oxazin-3(4H)-one]
9 | 2.7 | 1.3 | 0.4 | CCOc1cc2ncnc(-c3cn(C)nc3-c3ccc(F)cc3)c2nc1NC(=O)[C@]12C[C@H]1CN(C)C2 (single isomer, unassigned) [Example 376, (1R,5R)—N-(7-ethoxy-4-(3-(4-fluorophenyl)-1-methyl-1H-pyrazol-4-yl)pyrido[3,2-d]pyrimidin-6-yl)-3-methyl-3-azabicyclo[3.1.0]hexane-1-carboxamide or (1S,5S)—N-(7-ethoxy-4-(3-(4-fluorophenyl)-1-methyl-1H-pyrazol-4-yl)pyrido[3,2-d]pyrimidin-6-yl)-3-methyl-3-azabicyclo[3.1.0]hexane-1-carboxamide]
10 | 1210 | 121 | 76.3 | COc1cc2ncnc(-c3cnn(C(F)(F)F)c3-c3ccccc3)c2cc1NC(=O)C12CC(C1)C2 [Example 485, N-(7-methoxy-4-(5-phenyl-1-(trifluoromethyl)-1H-pyrazol-4-yl)quinazolin-6-yl)bicyclo[1.1.1]pentane-1-carboxamide]
11 | 4.4 | 3.1 | 1.5 | COc1cc2ncnc(-c3cn(C)nc3-c3ccccc3)c2cc1NC(=O)C(C)(C)F [Example 350, 2-fluoro-N-(7-methoxy-4-(1-methyl-3-phenyl-1H-pyrazol-4-yl)quinazolin-6-yl)-2-methylpropanamide]
12 | 30.6 | 6.9 | 5.3 | COc1cc2ncnc(-c3cn(C)nc3-c3ccccc3)c2nc1O[C@@H](C)c1nnc(C)s1 (single isomer, unassigned) [Example 51, (S)-2-(1-((7-methoxy-4-(1-methyl-3-phenyl-1H-pyrazol-4-yl)pyrido[3,2-d]pyrimidin-6-yl)oxy)ethyl)-5-methyl-1,3,4-thiadiazole or (R)-2-(1-((7-methoxy-4-(1-methyl-3-phenyl-1H-pyrazol-4-yl)pyrido[3,2-d]pyrimidin-6-yl)oxy)ethyl)-5-methyl-1,3,4-thiadiazole]
13 | 2.7 | 2.1 | 1 | COc1cc2ncnc(-c3cn(C)nc3-c3ccccc3)c2cc1NC(=O)c1ccnn1C(C)C [Example 218, 1-isopropyl-N-(7-methoxy-4-(1-methyl-3-phenyl-1H-pyrazol-4-yl)quinazolin-6-yl)-1H-pyrazole-5-carboxamide]
14 | 2.9 | 1.5 | 0.7 | COc1cc2ncnc(-c3cn(C)nc3-c3ccccc3)c2cc1NC(=O)c1cncnc1 [Example 193, N-(7-methoxy-4-(1-methyl-3-phenyl-1H-pyrazol-4-yl)quinazolin-6-yl)pyrimidine-5-carboxamide]
15 | 0.9 | 1.5 | 0.8 | COc1cc2ncnc(-c3cn(C)nc3-c3ccccc3)c2cc1NC(=O)c1cnc(C2CC2)s1 [Example 209, 2-cyclopropyl-N-(7-methoxy-4-(1-methyl-3-phenyl-1H-pyrazol-4-yl)quinazolin-6-yl)thiazole-5-carboxamide]
16 | 0.5 | 0.5 | 0.4 | Cn1cc(-c2ccc3c(-c4c[nH]nc4-c4cc(F)ccc4F)ncnc3c2)cn1 [Example 444, 4-(3-(2,5-difluorophenyl)-1H-pyrazol-4-yl)-7-(1-methyl-1H-pyrazol-4-yl)quinazoline]
17 | 4.8 | 5.2 | 2.9 | CCn1cc(-c2ncnc3cc(OC)c(N4CCOCC4)cc23)c(-c2ccc(F)cc2)n1 [Example 171, 4-(4-(1-ethyl-3-(4-fluorophenyl)-1H-pyrazol-4-yl)-7-methoxyquinazolin-6-yl)morpholine]

Row | Compound | IC50 [1] [nM] | IC50 [2] [nM] | IC50 [3] [nM]
18 | 7-methoxy-6-(2-methyl-2H-indazol-4-yl)-4-(1-methyl-3-phenyl-1H-pyrazol-4-yl)pyrido[3,2-d]pyrimidine [Example 155] | 5.1 | 7.3 | 2
